Test results as given in patent publication US20170233413A1, “SUBSTITUTED ANNULATED PYRIMIDINES AND USE THEREOF” (Bayer Pharma Aktiengesellschaft, priority 2014, published 2017).
pIC50: −log10 of the molar value.

Tests used:
[1] = molecular target: T1, recombinant guanylate cyclase reporter cell line (Rattus norvegicus, UniProt P19686+P20595); test: Effect on a recombinant guanylate cyclase reporter cell line; type: cell-based; details: MEC = minimum effective concentration; in some cases means of individual determinations
T1 construct: expressed in transfected cells
T1 sequence (P19686 1-690): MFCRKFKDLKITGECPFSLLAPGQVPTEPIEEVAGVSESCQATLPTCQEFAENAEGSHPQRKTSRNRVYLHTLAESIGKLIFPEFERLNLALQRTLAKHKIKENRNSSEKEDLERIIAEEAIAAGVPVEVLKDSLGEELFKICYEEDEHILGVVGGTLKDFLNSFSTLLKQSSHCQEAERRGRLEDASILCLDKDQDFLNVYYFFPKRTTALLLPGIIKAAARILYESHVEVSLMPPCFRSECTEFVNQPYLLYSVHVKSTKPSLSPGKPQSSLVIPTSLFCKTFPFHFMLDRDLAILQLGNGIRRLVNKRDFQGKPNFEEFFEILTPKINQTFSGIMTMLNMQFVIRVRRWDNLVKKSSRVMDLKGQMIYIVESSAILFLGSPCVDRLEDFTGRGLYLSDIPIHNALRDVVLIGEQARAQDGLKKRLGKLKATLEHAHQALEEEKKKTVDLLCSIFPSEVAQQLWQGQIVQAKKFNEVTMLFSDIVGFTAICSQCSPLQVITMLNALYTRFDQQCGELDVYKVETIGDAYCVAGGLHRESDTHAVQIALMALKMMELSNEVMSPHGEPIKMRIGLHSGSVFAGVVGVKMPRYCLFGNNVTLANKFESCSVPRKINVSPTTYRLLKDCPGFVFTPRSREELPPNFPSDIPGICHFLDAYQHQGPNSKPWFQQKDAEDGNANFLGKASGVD
T1 sequence (P20595 1-619): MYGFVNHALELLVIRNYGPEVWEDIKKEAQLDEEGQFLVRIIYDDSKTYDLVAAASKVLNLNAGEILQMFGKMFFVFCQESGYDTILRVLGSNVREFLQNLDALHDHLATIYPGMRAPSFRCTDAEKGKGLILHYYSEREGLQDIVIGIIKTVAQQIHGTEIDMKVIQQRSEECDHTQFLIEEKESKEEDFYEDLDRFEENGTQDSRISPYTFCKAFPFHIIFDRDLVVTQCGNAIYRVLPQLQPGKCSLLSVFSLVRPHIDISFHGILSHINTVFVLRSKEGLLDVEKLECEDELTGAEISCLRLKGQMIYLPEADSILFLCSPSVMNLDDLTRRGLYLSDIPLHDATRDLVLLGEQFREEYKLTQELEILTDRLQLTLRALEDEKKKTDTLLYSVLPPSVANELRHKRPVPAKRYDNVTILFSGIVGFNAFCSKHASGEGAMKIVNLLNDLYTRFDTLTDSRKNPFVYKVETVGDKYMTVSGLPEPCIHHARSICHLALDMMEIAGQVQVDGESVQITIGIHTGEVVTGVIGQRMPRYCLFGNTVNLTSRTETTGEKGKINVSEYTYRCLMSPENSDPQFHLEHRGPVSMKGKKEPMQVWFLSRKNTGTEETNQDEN
Method in brief: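 Cellular activity measured in a recombinant rat soluble guanylate cyclase reporter cell line. Values are minimum effective concentration (MEC), some given as means of individual determinations.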

[2] = molecular target: T2, human phosphodiesterase 5 (PDE 5) (Homo sapiens, UniProt O76074); test: Inhibition of human phosphodiesterase 5 (PDE 5); type: biochemical; details: PDE 5 preparation from human platelets; in some cases means of individual determinations
T2 construct: PDE 5 preparations are obtained from human platelets by disruption; from tissue; host or cells: human platelets
Method in brief: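 Enzyme partially purified from human platelets by Mono Q ion exchange, diluted so that under 70% of substrate converts. [8-3H]cGMP at 0.025 μCi per well in Tris pH 7.5 with MgCl2/EDTA, 60 min at room temperature, yttrium SPA bead read-out. Final compound concentrations 4–0.0018 μM; IC50 from concentration–inhibition plot.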

| SMILES | MEC [1] [µM] | pIC50 [2] |
| --- | --- | --- |
| Cc1nc2c(cc1F)c(-c1nc3c(c(C(N)=O)n1)C(C)(C(F)(F)F)C(=O)N3)nn2Cc1ncccc1F (single isomer, unassigned; ent-2) [Example 20, ent-2-{5-Fluoro-1-[(3-fluoropyridin-2-yl)methyl]-6-methyl-1H-pyrazolo[3,4-b]pyridin-3-yl}-5-methyl-6-oxo-5-(trifluoromethyl)-6,7-dihydro-5H-pyrrolo[2,3-d]pyrimidine-4-carboxamide (enantiomer B)] | 1 | 6.72 |
| Cc1nc2c(cc1F)c(-c1nc3c(c(C(=O)NCC(C)(N)CC(F)F)n1)C(C)(C)C(=O)N3)nn2Cc1cccc(F)c1F (single isomer, unassigned) [Example 57] | 1 | 7.00 |
| CC(N)(CNC(=O)c1nc(-c2nn(Cc3ncccc3F)c3ncc(F)cc23)nc2c1C(C)(C)C(=O)N2)CC(F)F (single isomer, unassigned) [Example 56] | 3 | 6.92 |
| Cc1nc2c(cc1F)c(-c1nc3c(c(C(N)=O)n1)C(C)(C)C(=O)N3)nn2Cc1ncccc1F [Example 7, 2-{5-Fluoro-1-[(3-fluoropyridin-2-yl)methyl]-6-methyl-1H-pyrazolo[3,4-b]pyridin-3-yl}-5,5-dimethyl-6-oxo-6,7-dihydro-5H-pyrrolo[2,3-d]pyrimidine-4-carboxamide] | 3 | 6.89 |
| Cc1nc2c(cc1F)c(-c1nc3c(c(C(N)=O)n1)C(C)(C(F)(F)F)C(=O)N3)nn2Cc1ncccc1F (racemic) [Example 18, rac-2-{5-Fluoro-1-[(3-fluoropyridin-2-yl)methyl]-6-methyl-1H-pyrazolo[3,4-b]pyridin-3-yl}-5-methyl-6-oxo-5-(trifluoromethyl)-6,7-dihydro-5H-pyrrolo[2,3-d]pyrimidine-4-carboxamide] | 0.3 | 6.24 |
| Cc1nc2c(cc1F)c(-c1nc3c(c(C(=O)NC4CC4)n1)C(C)(C)C(=O)N3)nn2Cc1cccc(F)c1F [Example 37] | 0.1 | 8.40 |
| Cc1nc2c(cc1F)c(-c1nc3c(c(C(N)=O)n1)C(C)(C(F)(F)F)C(=O)N3)nn2Cc1ccccc1F (racemic) [Example 12, rac-2-[5-fluoro-1-(2-fluorobenzyl)-6-methyl-1H-pyrazolo[3,4-b]pyridin-3-yl]-5-methyl-6-oxo-5-(trifluoromethyl)-6,7-dihydro-5H-pyrrolo[2,3-d]pyrimidine-4-carboxamide] | 0.065 | 6.89 |
| Cc1nc2c(cc1F)c(-c1nc3c(c(C(N)=O)n1)C(C)(C(F)(F)F)C(=O)N3)nn2Cc1cccc(F)c1F (single isomer, unassigned; ent-2) [Example 11, ent-2-[1-(2,3-Difluorobenzyl)-5-fluoro-6-methyl-1H-pyrazolo[3,4-b]pyridin-3-yl]-5-methyl-6-oxo-5-(trifluoromethyl)-6,7-dihydro-5H-pyrrolo[2,3-d]pyrimidine-4-carboxamide (enantiomer B)] | 0.1 | 7.04 |
| Cc1nc2c(cc1F)c(-c1nc3c(c(C(N)=O)n1)C(C)(C)C(=O)N3)nn2Cc1c(F)ccc(F)c1F [Example 6, 2-[5-Fluoro-6-methyl-1-(2,3,6-trifluorobenzyl)-1H-pyrazolo[3,4-b]pyridin-3-yl]-5,5-dimethyl-6-oxo-6,7-dihydro-5H-pyrrolo[2,3-d]pyrimidine-4-carboxamide] | 0.2 | 6.85 |

Now from value to compound:

| MEC [1] [µM] | pIC50 [2] | SMILES |
| --- | --- | --- |
| 1 | 7.64 | C[C@H](NC(=O)c1nc(-c2nn(Cc3ccccc3F)c3ncccc23)nc2c1C(C)(C)C(=O)N2)C(N)=O [Example 80, N-[(2S)-1-amino-1-oxopropan-2-yl]-2-[1-(2-fluorobenzyl)-1H-pyrazolo[3,4-b]pyridin-3-yl]-5,5-dimethyl-6-oxo-6,7-dihydro-5H-pyrrolo[2,3-d]pyrimidine-4-carboxamide] |
| 0.1 | 7.89 | CC1(C)C(=O)Nc2nc(-c3nn(Cc4ccccc4F)c4ncccc34)nc(C(=O)NCCF)c21 [Example 83, 2-[1-(2-fluorobenzyl)-1H-pyrazolo[3,4-b]pyridin-3-yl]-N-(2-fluoroethyl)-5,5-dimethyl-6-oxo-6,7-dihydro-5H-pyrrolo[2,3-d]pyrimidine-4-carboxamide] |
| 1 | 7.06 | CC1(C)C(=O)Nc2nc(-c3nn(Cc4ccccc4F)c4ncccc34)nc(C(=O)Nc3cc(F)c(F)c(F)c3)c21 [Example 77, 2-[1-(2-fluorobenzyl)-1H-pyrazolo[3,4-b]pyridin-3-yl]-5,5-dimethyl-6-oxo-N-(3,4,5-trifluorophenyl)-6,7-dihydro-5H-pyrrolo[2,3-d]pyrimidine-4-carboxamide] |
| 0.3 | 7.89 | CC[C@H](C)NC(=O)c1nc(-c2nn(Cc3ccccc3F)c3ncccc23)nc2c1C(C)(C)C(=O)N2 [Example 134, N-[(2S)-butan-2-yl]-2-[1-(2-fluorobenzyl)-1H-pyrazolo[3,4-b]pyridin-3-yl]-5,5-dimethyl-6-oxo-6,7-dihydro-5H-pyrrolo[2,3-d]pyrimidine-4-carboxamide] |
| 0.1 | 6.66 | CN(CCO)C(=O)c1nc(-c2nn(Cc3ccccc3F)c3ncccc23)nc2c1C(C)(C)C(=O)N2 [Example 120, 2-[1-(2-fluorobenzyl)-1H-pyrazolo[3,4-b]pyridin-3-yl]-N-(2-hydroxyethyl)-N,5,5-trimethyl-6-oxo-6,7-dihydro-5H-pyrrolo[2,3-d]pyrimidine-4-carboxamide] |
| 1 | 7.38 | CC1(C)C(=O)Nc2nc(-c3nn(Cc4ccccc4F)c4ncccc34)nc(C(=O)NCC(N)CC(F)(F)F)c21 (racemic) [Example 136, rac-N-(2-amino-4,4,4-trifluorobutyl)-2-[1-(2-fluorobenzyl)-1H-pyrazolo[3,4-b]pyridin-3-yl]-5,5-dimethyl-6-oxo-6,7-dihydro-5H-pyrrolo[2,3-d]pyrimidine-4-carboxamide] |
| 0.3 | 7.52 | CCC(C)CNC(=O)c1nc(-c2nn(Cc3ccccc3F)c3ncccc23)nc2c1C(C)(C)C(=O)N2 (racemic) [Example 125, rac-2-[1-(2-fluorobenzyl)-1H-pyrazolo[3,4-b]pyridin-3-yl]-5,5-dimethyl-N-(2-methylbutyl)-6-oxo-6,7-dihydro-5H-pyrrolo[2,3-d]pyrimidine-4-carboxamide] |
| 0.3 | 6.03 | CC1(C)C(=O)Nc2nc(-c3nn(Cc4ccccc4F)c4ncccc34)nc(C(=O)N3CCC(O)C3)c21 (stereo not shown) [Example 26] |
| 0.3 | 7.55 | CC1(C)C(=O)Nc2nc(-c3nn(Cc4ccccc4F)c4ncccc34)nc(C(=O)NCC3CCCO3)c21 (racemic) [Example 130, rac-2-[1-(2-fluorobenzyl)-1H-pyrazolo[3,4-b]pyridin-3-yl]-5,5-dimethyl-6-oxo-N-(tetrahydrofuran-2-ylmethyl)-6,7-dihydro-5H-pyrrolo[2,3-d]pyrimidine-4-carboxamide] |
| 0.1 | 7.52 | CONC(=O)c1nc(-c2nn(Cc3ccccc3F)c3ncccc23)nc2c1C(C)(C)C(=O)N2 [Example 79, 2-[1-(2-fluorobenzyl)-1H-pyrazolo[3,4-b]pyridin-3-yl]-N-methoxy-5,5-dimethyl-6-oxo-6,7-dihydro-5H-pyrrolo[2,3-d]pyrimidine-4-carboxamide] |
| 1 | 7.13 | C[S+]([O-])CCNC(=O)c1nc(-c2nn(Cc3ccccc3F)c3ncccc23)nc2c1C(C)(C)C(=O)N2 (stereo not shown) [Example 64, 2-[1-(2-fluorobenzyl)-1H-pyrazolo[3,4-b]pyridin-3-yl]-5,5-dimethyl-N-[2-(methylsulfinyl)ethyl]-6-oxo-6,7-dihydro-5H-pyrrolo[2,3-d]pyrimidine-4-carboxamide] |
